Laboratory results reported in US20230012420A1, “METHODS AND COMPOSTIONS FOR INHIBITING P97” (California Institute of Technology, priority 2021, published 2023).

Tests used:
Assay type in all cases: cell-based, human
iso p97^R155H/+ MNs = assay: MN cell survival assay (live cell staining), isogenic mutant line; conditions: 100 nM for 6 days, vs DMSO (FIG. 5B)
Procedure: To compare p97 WT and […]/+ cells, MNs were thawed and plated on poly-lysine coated 96-well plates (Greiner, cat #655090) at a density of 1000 cells per 100 μL per well in MN maturation medium as described in the “motor neuron differentiation and maturation” section. Medium was changed with 100 μL of the same medium containing 15 μg/mL geltrex on day 1. 100 μL additional medium (excluding Geltrex) was added on day 4. Half of the medium (excluding the Brainfast supplement and Geltrex) was changed on day 7 and 11. 200 nM Ara-C was added to inhibit non-MN cells from proliferating. On day 14, the medium was replaced with N2 medium (DMEM/F12 and neurobasal medium, 1:1 v/v, 1% 100× N2). N2 medium was changed every six days. Cell viability was monitored every 3 or 4 days by staining with Calcein AM Viability Dye (Thermo, cat #65-0853-81), acquiring and analyzing images with ImageXpress Micro Confocal High-Content Imaging System (Molecular Devices). For p97 inhibitor treatment, MNs were plated on poly-lysine coated 384-well plates (Greiner, cat #781946) at a density of 500 cells per 30 μL per well. The same medium was used for plating and maintaining cells. Cell viability was monitored at day 1 and day 14. […]

p97^R155H/+ MNs [1] = assay: Proteomic analysis (LC-MS/MS) of D20 MNs after p97 inhibitor treatment; conditions: for Tau and MCM6 (proteomics): 6 days of treatment, 400 nM; for number of the 440 downregulated proteins that were increased after treatment / number of the 920 upregulated proteins that were reduced after treatment: 6 days, count stated for treatment with CB-5083 or NMS-873 (FIG. 5E)
Procedure: The maturation of MNs was followed using a 14 day protocol from BrainXell. Briefly, the MNs were thawed and plated on poly-lysine (Sigma, cat #P7886) coated plates in MN maturation medium containing DMEM/F12 (Gibco, cat #11330-032) and neurobasal medium (1:1 v/v), 2% 50× B27, 1% 100× N2, 0.25% 100× Glutamax, 10 ng/mL BDNF (Peprotech, cat #450-02), 10 ng/mL GDNF(Peprotech, cat #450-10), 1 ng/mL TGF-β1 (Peprotech, cat #100-21c), and 1× Brainfast supplement (BrainXell). The medium was changed with the same medium containing 15 μg/mL geltrex on day 1. An equal volume of maturation medium (excluding Geltrex) was added on day 4. Half of the medium (excluding the Brainfast supplement and Geltrex) was changed twice weekly from day 7. The MNs can be maintained for at least three weeks. […] NMS-873, cat #406458), or same volume of DMSO at D14, and then incubated for 6 days. The cells were harvested on D20. After culture, MN cells were scraped off the plates, washed with DPBS, and centrifuged at 300 g for 4 min to remove supernatant. Pellets were frozen at -80° C. The mass spec samples were prepared by following instructions for the […] Sample Prep Kit (Thermo Scientific, cat #A4006). Samples were dried using a vacuum centrifuge and resuspended in 0.1% formic acid (Thermo, cat #85178) water solution. Peptide concentrations were measured using the Quantitative Fluorometric Peptide Assay kit (Thermo, cat #23290). LC-MS/MS experiments were performed by loading 0.5 μg sample onto an EASY-nLC 1000 (Thermo Scientific) connected to an Orbitrap Eclipse Tribrid mass spectrometer (Thermo Scientific). Peptides were separated on an Aurora UHPLC Column (25 cm×75 μm, 1.6 μm C18, AUR2-25075C18A, Ion Opticks) with a flow rate of 0.4 μL/min and a total duration time of 131 min following the gradient composed of 3% Solvent B for 1 min, 3-19% B for 72 min, 19-29% B for 28 min, 29-41% B for 20 min, 41-95% B for 3 min, and 95-98% B for 7 min. Solvent A consists of 97.8% H2O, 2% ACN, and 0.2% formic acid; solvent B consists of 19.8% H2O, 80% ACN, and 0.2% formic acid. MS1 scans were acquired with a range of 400-1600 m/z in the Orbitrap at 120 k resolution. The maximum injection time was 50 ms, and the AGC target was 2×105. The filter dynamic exclusion was set to exclude after 1 time, 30 s duration, and 10 ppm mass tolerance. MS2 scans were acquired with quadrupole isolation mode and higher-energy collisional dissociation (HCD) activation type in the Iontrap. The isolation window was 1.4 m/z, collision energy was 35%, maximum injection time was 35 ms, and the AGC target was 1×104. Other global settings were as below: ion source type, NSI; spray voltage, positive ion 2400 V, negative ion 600 V; ion transfer tube temperature, 300° C. Method modifications and data collection were performed using Xcalibur software (Thermo Scientific). Proteomic analysis was performed using Proteome Discoverer 2.4 (Thermo Scientific) software with the Uniprot human database and the SequestHT with Percolator validation. Protein abundance normalization was performed on total peptide. The data exported from PD2.4 were then used for further analysis. Limma analysis was performed using R studio following the user guide (Gordon, 2020). The volcano figures were plotted using Origin 2019b. PCA analyses were generated with PD2.4 and plotted using Prism 7. The Venn diagram was performed using FunRich 3.1. The heatmap figure was performed with prism 7. Functional enrichment analyses were performed with g:Profiler (Raudvere, 2019). The bubble plot was generated using Origin 2019b.

p97^R155H/+ MNs [2] = assay: Western blot of dysregulated protein levels after p97 inhibitor treatment; conditions: 400 nM for 6 days, 20 dpm (FIG. 5C)
Procedure: The maturation of MNs was followed using a 14 day protocol from BrainXell. Briefly, the MNs were thawed and plated on poly-lysine (Sigma, cat #P7886) coated plates in MN maturation medium containing DMEM/F12 (Gibco, cat #11330-032) and neurobasal medium (1:1 v/v), 2% 50× B27, 1% 100× N2, 0.25% 100× Glutamax, 10 ng/mL BDNF (Peprotech, cat #450-02), 10 ng/mL GDNF(Peprotech, cat #450-10), 1 ng/mL TGF-β1 (Peprotech, cat #100-21c), and 1× Brainfast supplement (BrainXell). The medium was changed with the same medium containing 15 μg/mL geltrex on day 1. An equal volume of maturation medium (excluding Geltrex) was added on day 4. Half of the medium (excluding the Brainfast supplement and Geltrex) was changed twice weekly from day 7. The MNs can be maintained for at least three weeks. […] NMS-873, cat #406458), or same volume of DMSO at D14, and then incubated for 6 days. The cells were harvested on D20. MN cells were scraped off plates, washed with DPBS, and centrifuged at 300 g for 4 min to remove supernatant. Pellets were frozen at −80° C. Pellets were resuspended with 100 lysis buffer (50 mM Tris-HCl pH 8.0, 150 mM NaCl, 1% Triton X-100 with protease inhibitor tablet, 50 μM MG132, and 50 mM NEM), and incubated on ice for 10 min with occasional vortexing. After that, samples were centrifuged at 15000 rpm at 4° C. for 10 min and transferred 90 μL cell lysate into a 1.5 mL tube. Total soluble protein concentrations were measured using the Bradford test (Bio-Rad, cat #5000006). 30 μL 4×Laemmli sample buffer (Bio-Rad, cat #161-0774) was added and samples were boiled for 5 min. An equal amount of protein was loaded and separated using 4-20% Mini-PROTEAN TGX precast gels (Bio-Rad, cat #456-1096) and transferred to nitrocellulose membranes using Trans-Blot Turbo Transfer System (Bio-Rad, cat #170-4155). Membranes were blocked with 1×TBST with 5% w/v nonfat milk, incubated with primary antibodies for 2 h at room temperature or overnight at 4° C., and incubated with HRP-conjugated secondary antibodies (Bio-Rad, 1:3000 dilution) for 2 h at room temperature. […] The blot densities were analyzed using Image Lab 6.0.1 software (Bio-Rad).

p97^R155H/+ MNs [3] = assay: MN cell survival assay (Calcein AM live cell staining); conditions: 400 nM, treated at 14 dpm for 6 days, read at 20 dpm, vs DMSO (FIG. 5A)
Procedure: The maturation of MNs was followed using a 14 day protocol from BrainXell. Briefly, the MNs were thawed and plated on poly-lysine (Sigma, cat #P7886) coated plates in MN maturation medium containing DMEM/F12 (Gibco, cat #11330-032) and neurobasal medium (1:1 v/v), 2% 50× B27, 1% 100× N2, 0.25% 100× Glutamax, 10 ng/mL BDNF (Peprotech, cat #450-02), 10 ng/mL GDNF(Peprotech, cat #450-10), 1 ng/mL TGF-β1 (Peprotech, cat #100-21c), and 1× Brainfast supplement (BrainXell). The medium was changed with the same medium containing 15 μg/mL geltrex on day 1. An equal volume of maturation medium (excluding Geltrex) was added on day 4. Half of the medium (excluding the Brainfast supplement and Geltrex) was changed twice weekly from day 7. The MNs can be maintained for at least three weeks. […] NMS-873, cat #406458), or same volume of DMSO at D14, and then incubated for 6 days. The cells were harvested on D20. […] Cell viability was monitored every 3 or 4 days by staining with Calcein AM Viability Dye (Thermo, cat #65-0853-81), acquiring and analyzing images with ImageXpress Micro Confocal High-Content Imaging System (Molecular Devices). […] Cell viability was monitored at day 1 and day 14. […]

For `Cc1cc(OCc2nnc(SC3CCCC3)n2-c2cccnc2)ccc1-c1ccc(S(C)(=O)=O)cc1` [NMS-873, 3-[3-cyclopentylsulfanyl-5-[[3-methyl-4-(4-methylsulfonylphenyl)phenoxy]methyl]-1,2,4-triazol-4-yl]pyridine], which “loss of MNs (neuron loss, live cell staining)” value (“loss of MNs” for short) (iso p97^R155H/+ MNs) is on record?
The value was “significantly reduced the loss of MNs”.

And the “Tau and MCM6 (proteomics)” value (p97^R155H/+ MNs [1])?
Its value is “reduced”.

And the “number of the 440 downregulated proteins that were increased after treatment” value (p97^R155H/+ MNs [1])?
The value was 192.

And the “number of the 920 upregulated proteins that were reduced after treatment” value (p97^R155H/+ MNs [1])?
The value was 428.

What about the “LC3 level (western blot)” value (p97^R155H/+ MNs [2]) of the same molecule?
Its value is “slightly elevated”.

What about the “protein levels of ISL1, NES, Tau, pTau, MCM6, p53, y-H2Ax (western blot)” value (p97^R155H/+ MNs [2]) of the same molecule?
The value was “reversed increases”.

And the “loss of MNs” value (p97^R155H/+ MNs [3])?
Its value is “significantly reduced the loss of MNs”.

Which “loss of MNs” value (iso p97^R155H/+ MNs) does the source give for `Cc1cc2c(C(N)=O)cccc2n1-c1nc2c(c(NCc3ccccc3)n1)COCC2` [CB-5083] here?
The value was “significantly reduced the loss of MNs”.

What about the “Tau and MCM6 (proteomics)” value (p97^R155H/+ MNs [1]) of the same molecule?
The value was “reduced”.

And the “number of the 440 downregulated proteins that were increased after treatment” value (p97^R155H/+ MNs [1])?
Its value is 192.

What about the “number of the 920 upregulated proteins that were reduced after treatment” value (p97^R155H/+ MNs [1]) of the same molecule?
The value was 428.

What about the “LC3 level (western blot)” value (p97^R155H/+ MNs [2]) of the same molecule?
The value was “slightly elevated”.

What about the “protein levels of ISL1, NES, Tau, pTau, MCM6, p53, y-H2Ax (western blot)” value (p97^R155H/+ MNs [2]) of the same molecule?
The value was “reversed increases”.

What about the “loss of MNs” value (p97^R155H/+ MNs [3]) of the same molecule?
Its value is “significantly reduced the loss of MNs”.
